Experiments:
[1] = target: Sodium- and chloride-dependent GABA transporter 2 (Mus musculus); experiment: Inhibition of mouse GAT3 expressed in HEK293 cells assessed as reduction in [3H]GABA uptake preincubated for 25 mins followed by [3H]GABA addition and measured after 4 mins by microbeta liquid scintillation counting method
[2] = target: Sodium- and chloride-dependent betaine transporter (Mus musculus); experiment: Inhibition of mouse GAT2 expressed in HEK293 cells assessed as reduction in [3H]GABA uptake preincubated for 25 mins followed by [3H]GABA addition and measured after 10 mins by microbeta liquid scintillation counting method
[3] = target: T1, Sodium- and chloride-dependent GABA transporter 1 (Mus musculus, UniProt P31648); experiment: Displacement of NO711 from mouse GAT1 expressed in stable HEK293 cell membranes preincubated for 10 mins followed by NO711 addition and measured after 40 mins by LC-ESI-MS/MS analysis
[4] = target: T1, Sodium- and chloride-dependent GABA transporter 1; experiment: Inhibition of mouse GAT1 expressed in HEK293 cells assessed as reduction in [3H]GABA uptake preincubated for 25 mins followed by [3H]GABA addition and measured after 4 mins by microbeta liquid scintillation counting method; type: cell-based
GABA transporter 4 = target: T2, GABA transporter 4 (Mus musculus, UniProt P31650); experiment: Inhibition of mouse GAT4 expressed in HEK293 cells assessed as reduction in [3H]GABA uptake preincubated for 25 mins followed by [3H]GABA addition and measured after 4 mins by microbeta liquid scintillation counting method; type: cell-based
T2 sequence (P31650 whole entry): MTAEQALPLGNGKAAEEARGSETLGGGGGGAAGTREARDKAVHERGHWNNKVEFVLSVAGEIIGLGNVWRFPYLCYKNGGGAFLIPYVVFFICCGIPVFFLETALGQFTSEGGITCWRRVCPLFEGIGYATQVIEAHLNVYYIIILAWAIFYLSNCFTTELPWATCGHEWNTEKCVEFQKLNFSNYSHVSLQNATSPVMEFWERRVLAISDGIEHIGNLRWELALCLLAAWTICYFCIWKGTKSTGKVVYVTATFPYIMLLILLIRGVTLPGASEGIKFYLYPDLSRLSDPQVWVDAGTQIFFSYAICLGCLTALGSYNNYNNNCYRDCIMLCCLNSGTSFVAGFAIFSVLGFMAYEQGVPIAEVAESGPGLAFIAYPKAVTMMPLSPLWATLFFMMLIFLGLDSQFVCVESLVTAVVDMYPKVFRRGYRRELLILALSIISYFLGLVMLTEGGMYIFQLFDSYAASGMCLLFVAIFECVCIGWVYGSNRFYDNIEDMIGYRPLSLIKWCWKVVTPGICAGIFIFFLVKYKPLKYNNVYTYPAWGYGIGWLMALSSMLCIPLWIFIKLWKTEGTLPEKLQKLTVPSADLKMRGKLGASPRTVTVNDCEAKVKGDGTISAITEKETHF

[5] = tested on: Sodium- and chloride-dependent GABA transporter 2 (Mus musculus); experiment: Inhibition of mouse GAT3 expressed in HEK293 cells assessed as remaining [3H]GABA uptake at 100 uM preincubated for 25 mins followed by [3H]GABA addition and measured after 4 mins by liquid scintillation counting method relative to control
[6] = tested on: Sodium- and chloride-dependent betaine transporter (Mus musculus); experiment: Inhibition of mouse GAT2 expressed in HEK293 cells assessed as remaining [3H]GABA uptake at 100 uM preincubated for 25 mins followed by [3H]GABA addition and measured after 10 mins by liquid scintillation counting method relative to control
[7] = target: T1, Sodium- and chloride-dependent GABA transporter 1; experiment: Inhibition of mouse GAT1 expressed in HEK293 cells assessed as remaining [3H]GABA uptake at 100 uM preincubated for 25 mins followed by [3H]GABA addition and measured after 4 mins by liquid scintillation counting method relative to control; type: cell-based; conditions: read-out: Activity
[8] = target: T1, Sodium- and chloride-dependent GABA transporter 1; experiment: Displacement of NO711 from mouse GAT1 expressed in stable HEK293 cells assessed as remaining specific NO711 binding level preincubated at 100 uM for 10 mins followed by NO711 addition and measured after 40 mins by LC-ESI-MS/MS analysis; type: cell-based; conditions: read-out: Activity
[9] = target: T3, GABA transporter 4 (Mus musculus) (UniProt P31650); experiment: Inhibition of mouse GAT4 expressed in HEK293 cells assessed as remaining [3H]GABA uptake at 100 uM preincubated for 25 mins followed by [3H]GABA addition and measured after 4 mins by liquid scintillation counting method relative to control; type: cell-based
T3 sequence (whole entry): T2 sequence (P31650 whole entry)

pIC50 [1]	pIC50 [2]	Ki [3] [µM]	IC50 [4] [µM]	IC50 (GABA transporter 4) [µM]	activity at 100 µM [5] [%]	activity at 100 µM [6] [%]	activity at 100 µM [7] [%]	activity at 100 µM [8] [%]	Activity [9] [%]	Compound
4.61	4.36									COc1ccc(C(C#CCN2CCCC(C(=O)O)C2)(c2ccc(OC)cc2)c2ccc(OC)cc2)cc1 (racemic)
		0.513	1	15.1	56	70				O=C(O)C1CCCN(C/C=C\CC(c2ccccc2)(c2ccccc2)c2ccccc2)C1 (racemic)
		26.3		49	72	68	62			COc1ccc(C(/C=C\CN2CCCC(C(=O)O)C2)c2ccc(OC)cc2)cc1 (racemic)
		25.7	74.1	57.5		65				COc1ccc(CC(/C=C\CN2CCCC(C(=O)O)C2)(c2ccc(OC)cc2)c2ccc(OC)cc2)cc1 (racemic)
					78	67	69	78	83	COc1ccc(C(/C=C\CN2CCCC(C(=O)O)C2)(c2ccc(OC)cc2)c2nccs2)cc1 (racemic)
		23.4	30.9	16.2		63				COc1ccc(C(/C=C\CCN2CCCC(C(=O)O)C2)(c2ccc(OC)cc2)c2ccc(OC)cc2)cc1 (racemic)
		41.7	38	63.1	57					COc1ccc(C(/C=C\CN2CCCC(C(=O)O)C2)(Cc2ccccc2)c2ccc(OC)cc2)cc1 (racemic)
		7.41	40.7	17.4						O=C(O)C1CCCN(CC/C=C\C(c2ccccc2)(c2ccccc2)c2ccccc2)C1 (racemic)
			79.4	33.1	49			62		COc1ccc(C(/C=C\CN2CCCC(C(=O)O)C2)(c2ccc(OC)cc2)c2ccsc2)cc1 (racemic)
		53.7	95.5	10						COc1ccc(C(/C=C\CN2CCCC(C(=O)O)C2)(c2ccc(OC)cc2)c2ccc3c(c2)OCO3)cc1 (racemic)
		24	41.7	61.7		52				COc1ccc(C(C/C=C\CN2CCCC(C(=O)O)C2)(c2ccc(OC)cc2)c2ccc(OC)cc2)cc1 (racemic)
					97	85	81	53	80	COc1ccc(C(O)(/C=C\CN2CCCC(C(=O)O)C2)c2ccc(OC)cc2)cc1 (racemic)

Compound	pIC50 [1]	pIC50 [2]	Ki [3] [µM]	IC50 [4] [µM]	IC50 (GABA transporter 4) [µM]	activity at 100 µM [5] [%]	activity at 100 µM [6] [%]	activity at 100 µM [7] [%]	activity at 100 µM [8] [%]	Activity [9] [%]
COc1ccc(C(/C=C\CN2CCCC(C(=O)O)C2)(c2ccc(OC)cc2)c2ccc(OC)cc2)cc1 (racemic)			17.8							
